These results are taken from US20250163104A1, “MACROCYCLIC IMMUNOMODULATORS” (priority 2021, published 2025).

In this test the target is T1, human PD-1 / PD-L1-Ig binding on Jurkat cell line over-expressing human PD-1 (Jurkat-PD-1) (Homo sapiens, UniProt Q15116).
T1 construct: expressed in transfected cells; host or cells: Jurkat
Kind of test: Jurkat-PD-1 Cell Binding High-Content Screening Assay (CBA). Type of test: cell-based. Conditions: Jurkat-PD-1 cells, PE-labeled PD-L1-Ig 20 nM final; read-out: Jurkat HPD1_PDL1 IC50. In short, it runs like this: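 Compounds were preincubated with Jurkat-hPD-1 cells in DMEM plus 10% fetal calf serum for 2 h at 37° C. Phycoerythrin-labeled PD-L1-Ig (20 nM final) was then added for 1 hour. Cells were fixed in 4% paraformaldehyde with Hoechst 33342, and bound fluorescence was quantified by high-content imaging.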

Where a SMILES comes first, the peptide text is derived from it. Bridges are numbered along the chain shown (N, C = ends). [ ]: non-standard residue; d: D form. The star is where a group is joined. ξ: configuration not given here. Phe(4-COOH) = N[C@@H](Cc1ccc(C(=O)O)cc1)C(=O)O; Bip = N[C@@H](Cc1ccc(-c2ccccc2)cc1)C(=O)O; Ala(2-furyl) = N[C@@H](Cc1ccco1)C(=O)O; Phe(3-Me) = Cc1cccc(C[C@H](N)C(=O)O)c1; Val(3-OH) = CC(C)(O)[C@H](N)C(=O)O; Benzoyl(4-F) = O=C(c1ccc(F)cc1)*; 4Pal = N[C@@H](Cc1ccncc1)C(=O)O; Cha = N[C@@H](CC1CCCCC1)C(=O)O; Cit = NC(=O)NCCC[C@H](N)C(=O)O; Ile(3ξ) = CCC(C)[C@H](N)C(=O)O; Thr(3ξ) = CC(O)[C@H](N)C(=O)O; Carboxymethyl = O=C(O)C*; Nle = CCCC[C@H](N)C(=O)O; Orn = NCCC[C@H](N)C(=O)O; Pra = C#CC[C@H](N)C(=O)O; Dab = NCC[C@H](N)C(=O)O; Dap = NC[C@H](N)C(=O)O

As usually defined, the IC50 is the concentration at which inhibition is half-maximal.

T1 sequence (Q15116 25-288): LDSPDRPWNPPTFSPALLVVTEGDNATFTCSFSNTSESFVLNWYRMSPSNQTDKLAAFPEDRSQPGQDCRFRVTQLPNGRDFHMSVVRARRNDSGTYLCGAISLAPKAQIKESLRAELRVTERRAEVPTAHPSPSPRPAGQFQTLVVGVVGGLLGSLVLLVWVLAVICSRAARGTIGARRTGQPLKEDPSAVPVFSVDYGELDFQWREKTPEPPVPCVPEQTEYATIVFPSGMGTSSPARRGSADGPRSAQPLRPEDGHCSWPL

For the compound `CC(C)C[C@H]1NC(=O)[C@H](CCCN)NC(=O)[C@H](CCCCN)NC(=O)[C@H](Cc2ccc(-c3ccccc3)cc2)NC(=O)[C@H](C(C)C)NC(=O)[C@H](Cc2c[nH]c3ccccc23)NC(=O)[C@H](CC(=O)O)NC(=O)[C@H](Cc2ccncc2)NC(=O)[C@H](CN)NC(=O)CSC[C@@H](C(=O)N[C@@H](CCCN)C(N)=O)NC(=O)[C@H](CN)NC(=O)[C@H](C(C)C)NC(=O)[C@H](CC2CCCCC2)NC(=O)[C@H](CCN)NC1=O` [Compound 2251] ({CH2CO}-[Dap][4Pal]DWV[Bip]K[Orn][dL][Dab][Cha]V[Dap]C[Orn]-NH2; thioether N-14), the IC50 was determined as 139 nM. For `CCC(C)[C@@H]1NC(=O)[C@H](Cc2ccc(-c3ccccc3)cc2)NC(=O)[C@H](C(C)C)NC(=O)[C@H](Cc2cccc(C)c2)NC(=O)[C@H](CC(=O)O)NC(=O)[C@H](Cc2ccc(C(=O)O)cc2)NC(=O)[C@H](Cc2ccncc2)NC(=O)CSC[C@@H](C(=O)N[C@H](CC(N)=O)C(N)=O)NC(=O)[C@H](CO)NC(=O)[C@H](C(C)C)NC(=O)[C@H](CC2CCCCC2)NC(=O)[C@H](CCN)NC(=O)[C@@H](CC(C)C)NC(=O)[C@H](CCCN)NC1=O` (stereo partly drawn) [Compound 2300] ({CH2CO}-[4Pal][Phe(4-COOH)]D[Phe(3-Me)]V[Bip][Ile(3ξ)][Orn][dL][Dab][Cha]VSC[dN]-NH2; thioether N-14), the IC50 is 13.4 nM. To `C#CC[C@H](NC(=O)[C@H](CCN)NC(=O)[C@@H]1CSCC(=O)N[C@@H](CN)C(=O)N[C@@H](Cc2ccc(C(=O)O)cc2)C(=O)N[C@@H](CC(=O)O)C(=O)N[C@@H](Cc2cccc(C)c2)C(=O)N[C@@H](Cc2ccc(C(=O)O)cc2)C(=O)N[C@@H](Cc2ccc(-c3ccccc3)cc2)C(=O)N[C@@H](Cc2ccc(C(=O)O)cc2)C(=O)N[C@@H](CCCN)C(=O)N[C@H](CC(C)C)C(=O)N[C@@H](CCN)C(=O)N[C@@H](CC2CCCCC2)C(=O)N[C@@H](C(C)(C)O)C(=O)N[C@@H](Cc2cnc[nH]2)C(=O)N1)C(N)=O` [Compound 1862] ({CH2CO}-[Dap][Phe(4-COOH)]D[Phe(3-Me)][Phe(4-COOH)][Bip][Phe(4-COOH)][Orn][dL][Dab][Cha][Val(3-OH)]HC[Dab][Pra]-NH2; thioether N-14) belongs 7.4 nM; to `CC(C)C[C@H]1NC(=O)[C@H](CCCN)NC(=O)[C@H](CCCNC(N)=O)NC(=O)[C@H](Cc2ccc(-c3ccccc3)cc2)NC(=O)[C@H](C(C)C)NC(=O)[C@H](Cc2c[nH]c3ccccc23)NC(=O)[C@H](CC(=O)O)NC(=O)[C@H](Cc2ccco2)NC(=O)[C@H](CN)NC(=O)CSC[C@@H](C(=O)N[C@@H](C)C(N)=O)NC(=O)[C@H]([C@@H](C)O)NC(=O)[C@H](C(C)C)NC(=O)[C@H](CC2CCCCC2)NC(=O)[C@H](CCN)NC1=O` [Compound 2099] ({CH2CO}-[Dap][Ala(2-furyl)]DWV[Bip][Cit][Orn][dL][Dab][Cha]VTCA-NH2; thioether N-14), 12.6 nM. As for `CC(C)C[C@H]1NC(=O)[C@H](CCCN)NC(=O)[C@H](CCCNC(N)=O)NC(=O)[C@H](Cc2ccc(-c3ccccc3)cc2)NC(=O)[C@H](C(C)C)NC(=O)[C@H](Cc2c[nH]c3ccccc23)NC(=O)[C@H](CC(=O)O)NC(=O)[C@H](Cc2ccncc2)NC(=O)[C@H](CN)NC(=O)CSC[C@@H](C(=O)N[C@@H](C)C(N)=O)NC(=O)[C@H]([C@@H](C)O)NC(=O)[C@H](C(C)C)NC(=O)[C@H](CC2CCCCC2)NC(=O)[C@H](CCN)NC1=O` [Compound 2096], the figure is 4.5 nM; as for `COc1cccc(C[C@@H]2NC(=O)[C@H](CC(=O)O)NC(=O)[C@H](Cc3ccc(C(=O)O)cc3)NC(=O)[C@H](Cc3ccc(OCC(=O)O)cc3)NC(=O)CSC[C@@H](C(=O)N[C@@H](C)C(N)=O)NC(=O)[C@H]([C@@H](C)O)NC(=O)[C@H](C(C)C)NC(=O)[C@H](CC3CCCCC3)NC(=O)[C@H](CCN)NC(=O)[C@@H](CC(C)C)NC(=O)[C@H](CCCN)NC(=O)[C@H](CCC(=O)O)NC(=O)[C@H](Cc3ccc(-c4ccccc4)cc3)NC(=O)[C@H](C(C)C)NC2=O)c1` [Compound 1541], 16.6 nM; as for `CC(C)C[C@@H]1NC(=O)[C@H](Cc2c[nH]c3ccccc23)NC(=O)[C@H](CC(=O)O)NC(=O)[C@H](Cc2ccncc2)NC(=O)[C@H](CN)NC(=O)CSC[C@@H](C(=O)NCC(N)=O)NC(=O)[C@H](CO)NC(=O)[C@H](C(C)C)NC(=O)[C@H](CC(C)C)NC(=O)[C@H](CC(N)=O)NC(=O)[C@@H](CC(C)C)NC(=O)[C@H](CCN)NC(=O)[C@H](C(C)C)NC(=O)[C@H](Cc2ccc(-c3ccccc3)cc2)NC1=O` [Compound 1281] ({CH2CO}-[Dap][4Pal]DWL[Bip]V[Dab][dL]NLVSCG-NH2; thioether N-14), 8.9 nM. As for `CCC(C)[C@@H]1NC(=O)[C@H](Cc2ccc(-c3ccccc3)cc2)NC(=O)[C@H](C(C)C)NC(=O)[C@H](Cc2cccc(C)c2)NC(=O)[C@H](CC(=O)O)NC(=O)[C@H](Cc2cccnc2)NC(=O)[C@H](CN)NC(=O)CSC[C@@H](C(=O)N[C@@H](C)C(N)=O)NC(=O)[C@H]([C@@H](C)O)NC(=O)[C@H](C(C)C)NC(=O)[C@H](CC2CCCCC2)NC(=O)[C@H](CCN)NC(=O)[C@@H](CC(C)C)NC(=O)[C@H](CCCN)NC1=O` (some centres unmarked) [Compound 2235], the IC50 amounted to 9.1 nM. With `Cc1cccc(C[C@@H]2NC(=O)[C@H](CC(=O)O)NC(=O)[C@H](Cc3ccc(OCC(=O)O)cc3)NC(=O)[C@H](CCN)NC(=O)CSC[C@@H](C(=O)N[C@@H](CCCN)C(N)=O)NC(=O)[C@H](C(C)O)NC(=O)[C@H](C(C)C)NC(=O)[C@H](CC3CCCCC3)NC(=O)[C@H](CCN)NC(=O)[C@@H](CC(C)C)NC(=O)[C@H](CCCN)NC(=O)[C@H](CCCNC(N)=O)NC(=O)[C@H](Cc3ccc(-c4ccccc4)cc3)NC(=O)[C@H](C(C)C)NC2=O)c1` (stereo partly drawn) [Compound 2639] ({CH2CO}-[Dab]Y(Carboxymethyl)D[Phe(3-Me)]V[Bip][Cit][Orn][dL][Dab][Cha]V[Thr(3ξ)]C[Orn]-NH2; thioether N-14), the concentration for half-maximal inhibition (IC50) was 13.6 nM.

With `Cc1cccc(C[C@@H]2NC(=O)[C@H](CC(=O)O)NC(=O)[C@H](Cc3ccc(OCC(=O)O)cc3)NC(=O)[C@H](CCCNC(=N)N)NC(=O)CSC[C@@H](C(N)=O)NC(=O)[C@H]([C@@H](C)O)NC(=O)[C@H](C(C)C)NC(=O)[C@H](CC3CCCCC3)NC(=O)[C@H](CCN)NC(=O)[C@@H](CC(C)C)NC(=O)[C@H](CCCN)NC(=O)[C@H](CCCNC(=O)c3ccc(F)cc3)NC(=O)[C@H](Cc3ccc(-c4ccccc4)cc3)NC(=O)[C@H](Cc3ccc(O)cc3)NC2=O)c1` [Compound 2052] ({CH2CO}-RY(Carboxymethyl)D[Phe(3-Me)]Y[Bip][Orn](Benzoyl(4-F))[Orn][dL][Dab][Cha]VTC-NH2; thioether N-14), the IC50 turned out to be 145 nM. On to `CCCC[C@@H]1NC(=O)[C@H](CCN)NC(=O)[C@@H](CC(C)C)NC(=O)[C@H](CCCN)NC(=O)[C@H](CCCNC(N)=O)NC(=O)[C@H](Cc2ccc(-c3ccccc3)cc2)NC(=O)[C@H](C(C)C)NC(=O)[C@H](Cc2c[nH]c3ccccc23)NC(=O)[C@H](CC(=O)O)NC(=O)[C@H](Cc2ccc(O)cc2)NC(=O)[C@H](CN)NC(=O)CSC[C@@H](C(=O)N[C@@H](C)C(N)=O)NC(=O)[C@H]([C@@H](C)O)NC(=O)[C@H](C(C)C)NC1=O` [Compound 1158] ({CH2CO}-[Dap]YDWV[Bip][Cit][Orn][dL][Dab][Nle]VTCA-NH2; thioether N-14), for which the half-inhibitory concentration (IC50) stood at 73.1 nM.
